The values that follow come from PubChem BioAssay AID1918991 (Molecular Pharmacology Branch, DTP, NCI, 2023).

As a reminder, the IC50 is the concentration that gives 50% inhibition. As usually defined, the viability, T/C is the ratio of treated to control.

Where “and” joins values, the source holds several entries; their conditions need not be identical. Equal entries are not always repeated. Where only a bound is given, the exact number is not on record here.

The subject of this experiment is 186277-243-T-J2-PDC complex spheroid growth. In words: Anticancer human tumor 186277-243-T-J2-PDC patient-derived colon adenocarcinoma cell line growth inhibition [AhR]. As to conditions: for viability, T/C: stronger effect = lower value. In a few lines: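 Complex tumor spheroids co-cultured with HUVEC and human MSC stroma; AhR antagonists tested in combination with standard-of-care and investigational agents. Top concentration at or near clinical Cmax (else 10 microM), half-log dilutions; growth expressed as percent test/control.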

Where [1] appears, read: curve of first compound, second compound 0.1 µM.
Setting [2] is: curve of first compound, second compound 0.316 µM.
The mark [3] stands for this setting: curve of first compound, second compound 1 µM.
Where [4] appears, read: curve of first compound, second compound 3.16 µM.
Setting [5] is: curve of first compound, second compound 10 µM.
[6] abbreviates: second compound 0.1 µM, first compound 0.0316 µM.
Where [7] appears, read: second compound 0.1 µM, first compound 0.1 µM.
[8] abbreviates: second compound 0.1 µM, first compound 0.316 µM.
Where [9] appears, read: second compound 0.1 µM, first compound 1 µM.
The mark [10] stands for this setting: second compound 0.1 µM, first compound 3.16 µM.
Where [11] appears, read: second compound 0.1 µM, first compound 10 µM.
Where [12] appears, read: second compound 0.316 µM, first compound 0.0316 µM.
[13] abbreviates: second compound 0.316 µM, first compound 0.1 µM.
Setting [14] is: second compound 0.316 µM, first compound 0.316 µM.
The mark [15] stands for this setting: second compound 0.316 µM, first compound 1 µM.
Where [16] appears, read: second compound 0.316 µM, first compound 3.16 µM.
Where [17] appears, read: second compound 0.316 µM, first compound 10 µM.
Where [18] appears, read: second compound 1 µM, first compound 0.0316 µM.
[19] abbreviates: second compound 1 µM, first compound 0.1 µM.
Setting [20] is: second compound 1 µM, first compound 0.316 µM.
[21] abbreviates: second compound 1 µM, first compound 1 µM.
Where [22] appears, read: second compound 1 µM, first compound 3.16 µM.
The mark [23] stands for this setting: second compound 1 µM, first compound 10 µM.
Where [24] appears, read: second compound 3.16 µM, first compound 0.0316 µM.
Where [25] appears, read: second compound 3.16 µM, first compound 0.1 µM.
[26] abbreviates: second compound 3.16 µM, first compound 0.316 µM.
[27] abbreviates: second compound 3.16 µM, first compound 1 µM.
Setting [28] is: second compound 3.16 µM, first compound 3.16 µM.
Setting [29] is: second compound 3.16 µM, first compound 10 µM.
The mark [30] stands for this setting: second compound 10 µM, first compound 0.0316 µM.
The mark [31] stands for this setting: second compound 10 µM, first compound 0.1 µM.
The mark [32] stands for this setting: second compound 10 µM, first compound 0.316 µM.
[33] abbreviates: second compound 10 µM, first compound 1 µM.
[34] abbreviates: second compound 10 µM, first compound 3.16 µM.
[35] abbreviates: second compound 10 µM, first compound 10 µM.
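Also: spheroids exposed to compounds for seven days before the viability read.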
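For viability, T/C in this document: luminescent signal used as a stand-in for viable cell amount; 100% = DMSO vehicle control wells.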

Turning to `COc1cc(Nc2ncc3c(n2)-c2ccc(Cl)cc2C(c2c(F)cccc2OC)=NC3)ccc1C(=O)O` + CC(CO)NC(=O)c1cc(-c2ccc(Cl)cc2)nn(-c2cnn(C)c2)c1=O, the IC50 reads like this: under setting [1], < 0.0316 µM; under setting [2], < 0.0316 µM; under setting [3], < 0.0316 µM; under setting [4], < 0.0316 µM; under setting [5], < 0.0316 µM. For the same molecule, the viability, T/C is, setting by setting: under setting [6], 27.6%; under setting [7], 22.9%; under setting [8], 21.5%; under setting [9], 20.5%; under setting [10], 22.3%; under setting [11], 27.9%. For the same molecule, the viability, T/C runs as follows: under setting [12], 26.1%; under setting [13], 23.8%; under setting [14], 22.4%; under setting [15], 18.9%; under setting [16], 22.7%; under setting [17], 22.7%. The viability, T/C is 30.3% under setting [18]; 22% under setting [19]; 21.9% under setting [20]; 20.7% under setting [21]; 22.2% under setting [22]; 25% under setting [23]. The viability, T/C is, setting by setting: under setting [24], 26.1%; under setting [25], 24.2%; under setting [26], 20.7%; under setting [27], 19.3%; under setting [28], 23%; under setting [29], 26%. Also, the viability, T/C is, setting by setting: under setting [30], 23.6%; under setting [31], 22.3%; under setting [32], 21.5%; under setting [33], 21.2%; under setting [34], 23.4%; under setting [35], 26.1%.
Take `CC1COCCN1c1cc(C2(S(C)(=N)=O)CC2)nc(-c2ccnc3[nH]ccc23)n1` (centres undefined): the viability, T/C runs as follows: (compound 0.0316 µM) 102% and 98.7% and 97.3%; (compound 0.1 µM) 98% and 103% and 99%; (compound 0.316 µM) 99.5% and 92% and 73%; (compound 1 µM) 106% and 89.6% and 47.1%; (compound 3.16 µM) 67.5% and 37.4% and 6.44%; (compound 10 µM) 8.92% and 13.3% and 3.14%. Besides, the 50% inhibitory concentration (IC50) (curve of compound) was 4.45 µM and 2.39 µM and 0.779 µM.
On to `CC(CO)NC(=O)c1cc(-c2ccc(Cl)cc2)nn(-c2cnn(C)c2)c1=O` (centres undefined), for which the viability, T/C is 98.3% [middle of 21 runs] (compound 1 µM) and 85.9% [middle of 19 runs] (compound 10 µM). Moreover, the IC50 (compound alone, run of 07/12/2022) was > 10 µM.
As for `Cn1ncnc1C1c2n[nH]c(=O)c3cc(F)cc(c23)NC1c1ccc(F)cc1` (centres undefined) + Cc1cncc(-c2nc(NCCc3c[nH]c4ccccc34)c3ncn(C(C)C)c3n2)c1, the IC50 by setting is: under setting [1], > 0.1 µM; under setting [2], > 0.1 µM; under setting [3], > 0.1 µM; under setting [4], > 0.1 µM; under setting [5], > 0.1 µM. For the same molecule, the viability, T/C reads like this: (second compound 0.1 µM, first compound 0.000316 µM) 89%; (second compound 0.1 µM, first compound 0.001 µM) 83.9%; (second compound 0.1 µM, first compound 0.00316 µM) 100%; (second compound 0.1 µM, first compound 0.01 µM) 107%; under setting [6], 115%; under setting [7], 123%. Moreover, the viability, T/C is, setting by setting: (second compound 0.316 µM, first compound 0.000316 µM) 109%; (second compound 0.316 µM, first compound 0.001 µM) 103%; (second compound 0.316 µM, first compound 0.00316 µM) 95%; (second compound 0.316 µM, first compound 0.01 µM) 110%; under setting [12], 121%; under setting [13], 135%. The viability, T/C was 92.5% (second compound 1 µM, first compound 0.000316 µM); 97.1% (second compound 1 µM, first compound 0.001 µM); 102% (second compound 1 µM, first compound 0.00316 µM); 107% (second compound 1 µM, first compound 0.01 µM); 130% under setting [18]; 139% under setting [19]. In addition, the viability, T/C runs as follows: (second compound 3.16 µM, first compound 0.000316 µM) 102%; (second compound 3.16 µM, first compound 0.001 µM) 95.3%; (second compound 3.16 µM, first compound 0.00316 µM) 99.3%; (second compound 3.16 µM, first compound 0.01 µM) 112%; under setting [24], 127%; under setting [25], 128%. Moreover, the viability, T/C is 77.4% (second compound 10 µM, first compound 0.000316 µM); 90.7% (second compound 10 µM, first compound 0.001 µM); 83.7% (second compound 10 µM, first compound 0.00316 µM); 66.9% (second compound 10 µM, first compound 0.01 µM); 69.6% under setting [30]; 68% under setting [31].
For the molecule `O=C(C=Cn1cnc(-c2cc(C(F)(F)F)cc(C(F)(F)F)c2)n1)NNc1cnccn1`, the viability, T/C reads like this: (compound 0.00949 µM) 92.2% and 97% and 81.2%; (compound 0.03 µM) 102% and 90.7% and 65.3%; (compound 0.0949 µM) 102% and 91.8% and 41.7%; (compound 0.3 µM) 74.7% and 80.7% and 10.9%; (compound 0.949 µM) 12.6% and 17.4% and 2.87%; (compound 3 µM) 4.45% and 8.73% and 1.48%. Also, the IC50 (curve of compound) was 0.474 µM and 0.524 µM and 0.0615 µM.
On to `O=C(c1cc(Cc2n[nH]c(=O)c3ccccc23)ccc1F)N1CCN(C(=O)C2CC2)CC1`, for which the viability, T/C (compound 0.0316 µM) was 97.8% and 98% and 85.2%; the viability, T/C (compound 0.1 µM) was 93.2% and 103% and 106%; the viability, T/C (compound 0.316 µM) is 114% and 94.5% and 98.3%; the viability, T/C (compound 1 µM) was 109% and 92.3% and 85%; the viability, T/C (compound 3.16 µM) is 132% and 89.9% and 70.9%; the viability, T/C (compound 10 µM) was 120% and 114% and 36.5%. Moreover, the IC50 (curve of compound) is > 10 µM and 6.3 µM.
Regarding `COc1cc(C2c3cc4c(cc3C(OC3OC5COC(C)OC5C(O)C3O)C3COC(=O)C23)OCO4)cc(OC)c1O` (centres undefined) + Cc1ccccc1N=Nc1ccc(NC(=O)c2ccnn2C)c(C)c1, the 50% inhibitory concentration (IC50) reads like this: under setting [1], 8.92 µM; under setting [2], 7.74 µM; under setting [3], 7.57 µM; under setting [4], 7.22 µM; under setting [5], 7.39 µM. Besides, the viability, T/C runs as follows: under setting [6], 87.1%; under setting [7], 103%; under setting [8], 142%; under setting [9], 99.7%; under setting [10], 81%; under setting [11], 46.5%. Besides, the viability, T/C was 98.5% under setting [12]; 117% under setting [13]; 145% under setting [14]; 96.1% under setting [15]; 78.6% under setting [16]; 42% under setting [17]. The viability, T/C by setting is: under setting [18], 113%; under setting [19], 124%; under setting [20], 144%; under setting [21], 93.6%; under setting [22], 76.2%; under setting [23], 41.7%. For the same molecule, the viability, T/C runs as follows: under setting [24], 94.8%; under setting [25], 106%; under setting [26], 137%; under setting [27], 94.6%; under setting [28], 72.8%; under setting [29], 41.2%. For the same molecule, the viability, T/C was 102% under setting [30]; 104% under setting [31]; 118% under setting [32]; 93.6% under setting [33]; 71.7% under setting [34]; 42.4% under setting [35].
